# Measured values from patent US20090169472A1, “METHODS AND COMPOSITIONS FOR TREATING IMMUNE DISORDERS” (CANCER RESEARCH TECHNOLOGY LTD., priority 2005, published 2009).
# Oligonucleotides are written 5' to 3', each unit as a sugar letter and its base; * is a phosphorothioate linkage, no mark a phosphodiester; rarer units and linkages stand in square brackets, end groups in braces. Plain capitals give the bases only. r = 2'-OH (RNA)
# Tested on: Flt3L-DC
# Experiment: Flt3L-DC activation assay (cytokines in supernatant by sandwich ELISA)
# Format: cell-based, mouse
# Conditions: for levels of IFNα compared with polyUs-21: at higher concentrations; for ability to stimulate TLR7: summary statement on oligonucleotides of Table 1; for IFNα induction by Flt3L-DC compared with polyUs-21 (reference TLR7 ligand): comparison in words; for IFNα production: phosphodiester RNA of undefined length, previous experiments; for fold less potent in inducing IFNα by Flt3L-DC than the 21-mer (polyUo-21): phosphodiester polyU RNA, shift in the dose response
# [1] = oligonucleotide/PEI complexes, C57BL/6 Flt3L-DC, overnight culture, result in words
# Protocol: Flt3L-DC were generated from bone marrow cell suspensions in RPMI 1640 medium containing 10% fetal calf serum, 2 mM glutamine, 100 units/ml penicillin, 100 μg/ml streptomycin, 50 μM 2-mercaptoethanol and 50 ng/ml murine Flt3L (R&D systems) and were used at day 10 or 11 of cultures.
# For stimulation with oligonucleotides, 2×10^5 Flt3L-DC were seeded in triplicate in 96-well-plates. Oligonucleotides were added and cells were cultured overnight in a final volume of 200 μl. Controls contained medium alone, 0.5 μg/ml CpG 1668, 100 mM loxoribine or 1 μM R848.
# For stimulation with oligonucleotides other than CpG 1668, different doses of each test oligonucleotides were diluted in 150 mM NaCl solution and mixed with an equal volume of 150 mM NaCl solution+/−polytheylenimine (PEI; 3 μl/ml PEI were used irrespective of the RNA dose). After 15 min incubation at room temperature, oligonucleotide/PEI complexes were added to cells. Supernatants were collected after 18-20 hr of culture and levels of IFNα, IL-6 and IL-12 p40 were determined by sandwich ELISA.
compound,measurement,setting,value
"SSD28: phosphorothioate RNA 21-mer CCCCUUCUUCUUCUUCUUCCC, 5x double U, one C apart, SEQ ID NO 24 (rC*rC*rC*rC*rU*rU*rC*rU*rU*rC*rU*rU*rC*rU*rU*rC*rU*rU*rC*rC*rC)",levels of IFNα compared with polyUs-21,PEI complexes,comparable to the polyUs-21 oligonucleotide
same,IFNα induction by Flt3L-DC,[1],very potent in inducing IFNα
same,ability to stimulate TLR7,,capable of stimulating TLR7
"polyUo-21: polyU RNA 21-mer, phosphodiester bonds, SEQ ID NO 2 (UUUUUUUUUUUUUUUUUUUUU; unmodified RNA)",IFNα induction by Flt3L-DC compared with polyUs-21 (reference TLR7 ligand),PEI complexes,induced similar IFNα
same,IFNα induction by Flt3L-DC,free oligonucleotide given to culture without PEI,failed to induce IFNα
same,IFNα induction by Flt3L-DC,[1],induced IFNα by Flt3L-DC in a dose dependent manner
same,ability to stimulate TLR7,,capable of stimulating TLR7
"SSD25: phosphorothioate RNA 21-mer CUUUCCCCCUUUCCCCCUUUC, 3x triple U, five C apart, SEQ ID NO 22 (rC*rU*rU*rU*rC*rC*rC*rC*rC*rU*rU*rU*rC*rC*rC*rC*rC*rU*rU*rU*rC)",IFNα induction by Flt3L-DC,[1],hardly any measurable levels of IFNα were induced
"SSD8: phosphorothioate RNA 21-mer CCUUUCCUUUCUUUCCUUUCC, 4x triple U, SEQ ID NO 12 (rC*rC*rU*rU*rU*rC*rC*rU*rU*rU*rC*rU*rU*rU*rC*rC*rU*rU*rU*rC*rC)","IFNα induction compared among SSD8, SSD9 and SSD10 (four, three or two uridine triplets)",PEI complexes,Differences between oligonucleotides SSD8 and SSD9 were only marginal
same,"potency in inducing IFNα, no uridine at the ends (SSD8, SSD14) compared with uridine at the ends (SSD13, SSD15)",PEI complexes,slightly more potent in inducing IFNα
same,"shift of the dose response, no uridine at the ends (SSD8, SSD14) compared with uridine at the ends (SSD13, SSD15)",PEI complexes,nearly half a logarithmic scale
same,IFNα induction by Flt3L-DC compared with polyUs-21 (reference TLR7 ligand),PEI complexes,lower levels of IFNα than the 21-mer oligonucleotide consisting entirely of uridine nucleotides
same,ability to stimulate TLR7,,capable of stimulating TLR7
"SSD14: phosphorothioate RNA 21-mer CCUUCCUUCCUUCCUUCCUUC, 5x double U, no U at the end, SEQ ID NO 16 (rC*rC*rU*rU*rC*rC*rU*rU*rC*rC*rU*rU*rC*rC*rU*rU*rC*rC*rU*rU*rC)","potency in inducing IFNα, no uridine at the ends (SSD8, SSD14) compared with uridine at the ends (SSD13, SSD15)",PEI complexes,slightly more potent in inducing IFNα
same,"shift of the dose response, no uridine at the ends (SSD8, SSD14) compared with uridine at the ends (SSD13, SSD15)",PEI complexes,nearly half a logarithmic scale
same,ability to stimulate TLR7,,capable of stimulating TLR7
"SSD22: phosphorothioate RNA 21-mer CCCCUUUCCUUUCCUUUCCCC, 3x triple U, two C apart, SEQ ID NO 19 (rC*rC*rC*rC*rU*rU*rU*rC*rC*rU*rU*rU*rC*rC*rU*rU*rU*rC*rC*rC*rC)",ability to stimulate TLR7,,capable of stimulating TLR7
"SSD27: phosphorothioate RNA 21-mer CUCUCUCUCUCUCUCUCUCUC, 10x single U, one C apart, SEQ ID NO 23 (rC*rU*rC*rU*rC*rU*rC*rU*rC*rU*rC*rU*rC*rU*rC*rU*rC*rU*rC*rU*rC)",IFNα induction by Flt3L-DC,[1],comparably poor in inducing IFNα
polyC [reference compound],IFNα production,,neither polyA nor polyC phosphodiester RNA of undefined length triggered IFNα production
"SSD23: phosphorothioate RNA 21-mer CCCUUUCCCUUUCCCUUUCCC, 3x triple U, three C apart, SEQ ID NO 20 (rC*rC*rC*rU*rU*rU*rC*rC*rC*rU*rU*rU*rC*rC*rC*rU*rU*rU*rC*rC*rC)",ability to stimulate TLR7,,capable of stimulating TLR7
"polyUo-15: polyU RNA 15-mer, phosphodiester bonds, SEQ ID NO 3 (UUUUUUUUUUUUUUU; unmodified RNA)",fold less potent in inducing IFNα by Flt3L-DC than the 21-mer (polyUo-21),PEI complexes,approximately 20 ×
same,ability to stimulate TLR7,,capable of stimulating TLR7
"polyTs-21: polyT RNA 21-mer, phosphorothioate bonds, SEQ ID NO 28 (TTTTTTTTTTTTTTTTTTTTT; RNA, all phosphorothioate, T or U not given here; further chemistry not fully specified)",IFNα induction by Flt3L-DC,[1],unable to induce measurable levels of IFNα at any of the tested concentrations
"SSD10: phosphorothioate RNA 21-mer CCCCCCCUUUCUUUCCCCCCC, 2x triple U, SEQ ID NO 14 (rC*rC*rC*rC*rC*rC*rC*rU*rU*rU*rC*rU*rU*rU*rC*rC*rC*rC*rC*rC*rC)","IFNα induction compared among SSD8, SSD9 and SSD10 (four, three or two uridine triplets)",PEI complexes,slightly reduced
same,IFNα induction by Flt3L-DC compared with polyUs-21 (reference TLR7 ligand),PEI complexes,lower levels of IFNα than the 21-mer oligonucleotide consisting entirely of uridine nucleotides
same,ability to stimulate TLR7,,capable of stimulating TLR7
"SSD15: phosphorothioate RNA 21-mer UUCCCUUCCCUUCCUUCCCUU, 5x double U with U at the end, SEQ ID NO 17 (rU*rU*rC*rC*rC*rU*rU*rC*rC*rC*rU*rU*rC*rC*rU*rU*rC*rC*rC*rU*rU)",ability to stimulate TLR7,,capable of stimulating TLR7
"SSD21: phosphorothioate RNA 21-mer CCCCCUUUCUUUCUUUCCCCC, 3x triple U, one C apart, SEQ ID NO 18 (rC*rC*rC*rC*rC*rU*rU*rU*rC*rU*rU*rU*rC*rU*rU*rU*rC*rC*rC*rC*rC)","IFNα levels compared within the group SSD21-SSD25 (three uridine triplets, one to five cytosines apart)",PEI complexes,induced the highest levels of IFNα in this group of oligonucleotides
same,IFNα induction by Flt3L-DC compared with polyUs-21 (reference TLR7 ligand),PEI complexes,less efficient in IFNα induction than polyUs-21
same,ability to stimulate TLR7,,capable of stimulating TLR7
polyA [reference compound],IFNα production,,neither polyA nor polyC phosphodiester RNA of undefined length triggered IFNα production
"polydUo-21: polyU DNA 21-mer (dU), phosphodiester bonds, SEQ ID NO 8 (UUUUUUUUUUUUUUUUUUUUU; listed as RNA, chemistry not fully specified)",potency in inducing IFNα compared with polyUo-21,"at higher doses, PEI complexes",even more potent
same,potency in stimulating an IFNα response compared with polyUo-21,"at lower doses, PEI complexes",less potent
same,IFNα induction by Flt3L-DC,[1],produced IFNα
same,ability to stimulate TLR7,,capable of stimulating TLR7
"polydUs-21: polyU DNA 21-mer (dU), phosphorothioate bonds, SEQ ID NO 9 (UUUUUUUUUUUUUUUUUUUUU; DNA, all phosphorothioate, T or U not given here)",ability to stimulate TLR7,,capable of stimulating TLR7
"C=CCn1c(=O)n([C@@H]2O[C@H](CO)[C@@H](O)[C@H]2O)c2nc(N)[nH]c(=O)c21 [loxoribine, reference compound]",IL-6 induction by Flt3L-DC,"ligands at concentrations of maximum cytokine induction, compared with polyUs-21/PEI",better inducers of IL-6 than polyUs-21
"SSD13: phosphorothioate RNA 21-mer UUUCCCUUUCCCUUUCCCUUU, 4x triple U, SEQ ID NO 15 (rU*rU*rU*rC*rC*rC*rU*rU*rU*rC*rC*rC*rU*rU*rU*rC*rC*rC*rU*rU*rU)",ability to stimulate TLR7,,capable of stimulating TLR7
"SSD24: phosphorothioate RNA 21-mer CCUUUCCCCUUUCCCCUUUCC, 3x triple U, four C apart, SEQ ID NO 21 (rC*rC*rU*rU*rU*rC*rC*rC*rC*rU*rU*rU*rC*rC*rC*rC*rU*rU*rU*rC*rC)",ability to stimulate TLR7,,capable of stimulating TLR7
"SSD29: phosphorothioate RNA 21-mer CCCCCCUUUUUUUUUUCCCCC, 10x U in a string, SEQ ID NO 25 (rC*rC*rC*rC*rC*rC*rU*rU*rU*rU*rU*rU*rU*rU*rU*rU*rC*rC*rC*rC*rC)",levels of IFNα compared with polyUs-21,PEI complexes,comparable to the polyUs-21 oligonucleotide
same,IFNα induction by Flt3L-DC,[1],very potent in inducing IFNα
same,ability to stimulate TLR7,,capable of stimulating TLR7
"SSD9: phosphorothioate RNA 21-mer CCCCCCCUUUCUUUCCUUUCC, 3x triple U, SEQ ID NO 13 (rC*rC*rC*rC*rC*rC*rC*rU*rU*rU*rC*rU*rU*rU*rC*rC*rU*rU*rU*rC*rC)","IFNα induction compared among SSD8, SSD9 and SSD10 (four, three or two uridine triplets)",PEI complexes,Differences between oligonucleotides SSD8 and SSD9 were only marginal
same,IFNα induction by Flt3L-DC compared with polyUs-21 (reference TLR7 ligand),PEI complexes,lower levels of IFNα than the 21-mer oligonucleotide consisting entirely of uridine nucleotides
same,ability to stimulate TLR7,,capable of stimulating TLR7
"polyUs-15: polyU RNA 15-mer, phosphorothioate bonds, SEQ ID NO 6 (rU*rU*rU*rU*rU*rU*rU*rU*rU*rU*rU*rU*rU*rU*rU)",IFNα induction by Flt3L-DC compared with polyUs-21 (reference TLR7 ligand),PEI complexes,indistinguishable from the response obtained with the 21-mer
same,ability to stimulate TLR7,,capable of stimulating TLR7
"polyUo-10: polyU RNA 10-mer, phosphodiester bonds, SEQ ID NO 4 (UUUUUUUUUU; unmodified RNA)",fold less potent in inducing IFNα by Flt3L-DC than the 21-mer (polyUo-21),PEI complexes,approximately 20 ×
same,ability to stimulate TLR7,,capable of stimulating TLR7
